System: endogenous GABAARs
Assay: all-optical assay of GABAAR antagonism in primary neuronal culture
Assay type: cell-based, rat
Procedure: Cultured neuronal assays: Preparation of hippocampal cultures: Mixed glial and neuronal cultures were prepared from the hippocampus of postnatal day 0 to 1 Sprague-Dawley rat pups. Separate pools of dissociated cells were transfected via electroporation (LONZA, V4SP-3096) with plasmid constructs, and depending on assay directives, either plated individually or mixed with a different pool of electroporated cells after a 10 min recovery period. Cells were cultured on coverslips (Deckglaser) pre-treated with high molecular weight poly-D-lysine (Sigma, P7405; 0.05 mg/mL) in 24-well plates and maintained in NbActiv4 (BrainBits, Nb4-500) at 37 C, 5% CO2. Media was changed by half at DIV3 or 4 and then weekly thereafter; experiments were performed between DIV16 to DIV18.
Gabazine: Dissociated neurons were electroporated with constructs and cultured for 2 weeks. The assay was performed in the same BASE solution as described above, but with the addition of synaptic blockers CPP (NMDAR antagonist; Tocris) and NBQX (AMPAR antagonist; Abcam, ab120046) to isolate GABAR activity, and a small amount of GABA (GABAR agonist; Sigma) to ensure GABAR activity (=GABAR-BASE). […] Instead, a high dose of regular gabazine was used to completely silence any cells that may not have had realized full antagonism by the end of the assay. Imaging alignment, proof-reading and analysis were performed in a similar fashion to the AMPAR assay using MatLab.
It was next focused on blocking the GABAAR, a ubiquitous transducer of synaptic inhibition. […] The structure-activity literature of gabazine, a selective GABAAR antagonist, was explored. The core gabazine pharmacophore includes of a 3-amino, 6-phenoxy-pyridazine ring, with GABA embedded in the 2-position (2 butyric acid). Based on historical, low-potency predecessors of gabazine, a longer GABA moiety (2 pentanoic acid), and methyl substituents (e.g., 5-CH3) were explored (FIG. 2F). For each variant, the 6-phenoxy moiety was modified to make a gabazinealkyne module, which was click-conjugated to DART.2. Several variants were made, including gabazine.1^DART.2 (2 butyric acid, 5-H), gabazine.5DART.2 (2 pentanoic acid, 5-H), and gabazine.7DART.2 (2 pentanoic acid, 5-CH3). An all-optical assay of endogenous GABAARs in primary neuronal culture was then developed. […] Excitatory synapses were blocked, such that opto-stimulation with ChR2 became the only source of neural excitation.

COc1cc(CCCCl)ccc1CCOCCNC(=O)c1ccc(CNC(=O)CCOCCOCCOCCOCCOCCOCCOCCOCCOCCOCCOCCOCCOCCOCCOCCOCCOCCOCCOCCOCCOCCOCCOCCOCCOCCOCCOCCOCCOCCOCCOCCOCCOCCOCCOCCOCCn2cc(COCCOCCOCCOCCOCCOCCOCCCCCCOc3ccc(-c4nn(CCCCC(=O)O)c(=N)cc4C)cc3)nn2)cc1 [gabazine.7DART.2]
increase in DW vs gabazine.1DART.2: ~6 fold
increase in HTL50 vs gabazine.1DART.2: ~3 fold
increase in Rx50 vs gabazine.1DART.2: ~20 fold
DW (t=15 m) (ddHTP vs +HTP cells, 15 min, 15 uM GABA): 3,000
